According to article PMC7908975, “Antioxidant and Anti-Inflammatory Activity of Citrus Flavanones Mix and Its Stability after In Vitro Simulated Digestion” (Antioxidants, 2021):

Key:
[1] = tested on: NO release in Caco-2 cells; test: NO release (Griess reaction), IL-1β stimulated Caco-2 transwell model; assay type: cell-based, human; settings: 24 h
Procedure: (§1) Experiments were carried out on transwell models (CacoReady™, Readycell, Barcelona, Spain) consisting of Caco-2 cells (8.5 × 10^4 cells/cm^2, passage number 41–58) seeded on polyester microporous filters in 24-well HTS plates (6.5 mm diameter, 0.33 cm^2 area and 0.4 µm of pore size) (Corning Incorporated, Corning, NY, USA). Completed Dulbecco’s Modified Eagle Medium (DMEM), prepared according to Denaro et al., was added on the apical (0.3 mL) and basolateral side (0.9 mL) of the Transwell® insert. After 21 days of culture, Caco-2 cells were completely differentiated and polarized, such that their phenotype resembled the morphological and functional features of mature enterocytes lining the small intestine.
(§2) Before starting with the anti-inflammatory experiments, the monolayer integrity was checked by measuring the trans-epithelial electrical resistance (TEER) with a Millicell® ERS-2 V/ohmmeter (Merck Millipore, Darmstadt, Germany) equipped with STX 100C electrode (World Precision Instruments, Sarasota, FL, USA). Caco-2-plated filters with epithelial resistance ≥800 Ω/cm^2 were used.
(§3) The anti-inflammatory activity of FM and digested FM (DFM) was evaluated on Caco-2 transwell model, according to Tesoriere et al., with some modifications. Briefly, 1.4 mM FM (see Section 2.3) was diluted 140 times in completed DMEM, obtaining a 10 µM FM (DMSO < 0.1%). […]
(§4) IL-6 and IL-8 release were measured by high-sensitivity human ELISA kits (Cymax IL-6 YIF-LF-EK0260 and Cymax IL-8YIF-LF-EK0262, Ab Frontiers, Adipogen Corporation, 9853 Pacific Heights Blvd., Suite L San Diego, CA, USA) according to the manufacturer’s recommendations, whereas NO release was estimated according to Tesoriere et al. by Griess reaction. […] Absorbance was recorded at 550 nm using a microplate reader (Multiskan GO, Thermo Scientific, Waltham, MA, USA). Results were expressed as µM NO extrapolating the results by a reference standard curve of sodium nitrite (1.0–15 µM).

[2] = tested on: IL-6 release in Caco-2 cells; test: IL-6 release, IL-1β stimulated Caco-2 transwell model; assay type: cell-based, human; settings: 24 h
Procedure: as §1, §2, §3, §4

[3] = tested on: IL-8 release in Caco-2 cells; test: IL-8 release, IL-1β stimulated Caco-2 transwell model; assay type: cell-based, human; settings: 24 h
Procedure: as §1, §2, §3, §4

[4] = In vitro simulated human gastric and duodenal digestion with LC-DAD-ESI-MS/MS quantification; assay type: in vitro ADME; settings: with respect to starting FM 10 µM; for DFM (µM): flavanone in duodenal digested flavanones mix: after gastric 2 h plus duodenal 4 h digestion, 37 °C; for GFM (µM): flavanone in gastric digested flavanones mix: after gastric digestion 2 h, pH 2.5, 37 °C
Source text: Based on the results of the preliminary antioxidant and anti-inflammatory screening (see Section 2.2), the most powerful flavanones (neohesperidin, hesperidin, neoeriocitrin, eriocitrin, and hesperetin) were selected in order to prepare a flavanones mix (FM), which was, at first instance, investigated by the same in vitro colorimetric assays (see Section 2.2) in order to evaluate its potency with respect to the single flavanones and to elucidate potential synergistic mechanisms. The following final concentration range of FM were used: FRAP (2.50–20 µM), ORAC (0.08–0.60 µM), TEAC (0.31–2.50 µM), DPPH (1.25–10 µM), ADA (5.0–40 µM), and APA (2.50–20 µM). After that, being the results of the preliminary antioxidant and anti-inflammatory screening of FM very promising, an appropriate concentration was chosen to proceed with the subsequent analyses. In particular, the FM was prepared on the assumption that digested sample, which would then be applied to the Caco-2 cells for the anti-inflammatory experiments, had to contain an equimolar concentration of the five most powerful flavanones (neohesperidin, hesperidin, neoeriocitrin, eriocitrin, and hesperetin) equal to 10 µM, which represents the mean efficacy concentration taking into account the IC50 values obtained in the preliminary antioxidant and anti-inflammatory screening of the FM. At this purpose, stock solutions (14 mM) of flavanones in DMSO were mixed and diluted 10-fold with Milli-Q water to obtain the 1.4 mM FM, which was used to carried out the in vitro simulated human digestion. In vitro gastric and duodenal digestion of FM was carried out according to Trombetta et al. with some modifications. FM solution (1.5 mL) (see Section 2.3), has been dissolved in 7.5 mL of simulated gastric solution containing 0.127 mM egg-phosphatidylcholine and adjusting the pH to 2.5, by 1 M HCl. Gastric pepsin and lipase (9000 U/mL and 60 U/mL, respectively) were added to the mixture starting the gastric digestion phase, which was protracted for 2 h at 37 °C, incubating under continuous stirring (170 rpm) by an Innova 4000 Benchtop Incubator Shaker (New Brunswick Scientific, Edison, NJ, USA). The gastric phase was stopped by the addition of 1M NaOH in order to reach a pH of 7.5, and 6 mL of the previous solution passed to the duodenal digestion phase. Duodenal solution was prepared by adding 2.10 mL of simulated bile solution (6.5 mM phosphatidylcholine, 4 mM cholesterol, 12.5 mM sodium taurocholate, and 12.5 mM sodium glycodeoxycholate) to 5.9 mL of simulated pancreatic juice containing pancreatic lipase (590 U/mL), colipase (3.2 µg/mL), trypsin (11 U/mL), α-chymotrypsin (24 U/mL), and α-amylase (300 U/mL). The duodenal mixture was incubated for 4 h under continuous stirring at 37 °C as described above. At the end, both gastric and duodenal digesta were immediately stored at −80 °C until the subsequent analyses. For quali-quantitative determination of flavanones, gastric and duodenal digesta were extracted with methanol (1:2, v/v) by mixing for 3 min. After that, samples were centrifuged at 12,000× g for 10 min, filtered by a 0.22 µm nylon syringe filter and injected into a liquid chromatograph equipped with a diode-array detector and mass spectrophotometer (LC-DAD-MS system, Agilent technologies, Santa Clara, CA, USA). The chromatographic separation was obtained using a reverse phase column Luna Omega PS C18 (150 × 2.1 mm, 5 µm; Phenomenex, Torrance, CA, USA) by using solvent A (formic acid 0.1% v/v) and solvent B (acetonitrile) as mobile phase according to the following elution gradient: 0 min, 0% B; 3–9 min, 3% B; 9–24 min, 12% B; 24–30 min, 20% B; 30–33 min, 33–43 30% B; 43–66 min 50% di B; 66–81 min 60% di B; 81–86 min 0% di B; 86–90 min 0% di B. […] UV–Vis spectra of flavanones were recorded (190–400 nm) and chromatograms were acquired at 292 nm, maximum flavanones absorption wavelength. […]

trypsin = test: Anti-protease activity (APA), anti-tryptic activity; assay type: biochemical
Procedure: The anti-tryptic activity of sample was evaluated according to Smeriglio et al.. Briefly, 200 µL of each flavanone (6.25–140 µM) or diclofenac sodium as reference compound (10–80 µM) were added to 12 µL of trypsin (10 µg/mL) and 188 µL of 25 mM Tris-HCl buffer (pH 7.5). After that, 200 µL of 0.8% casein solution were added and samples incubated for 20 min at 37 °C in a water bath. After that, 400 µL of perchloric acid were added to stop the reaction. The cloudy suspension, due to the protein precipitation, was centrifuged at 3500× g for 10 min and the absorbance of the supernatant was recorded at 280 nm against a blank consisting of deionized water instead of sample. Based on the results of the preliminary antioxidant and anti-inflammatory screening (see Section 2.2), the most powerful flavanones (neohesperidin, hesperidin, neoeriocitrin, eriocitrin, and hesperetin) were selected in order to prepare a flavanones mix (FM), which was, at first instance, investigated by the same in vitro colorimetric assays (see Section 2.2) in order to evaluate its potency with respect to the single flavanones and to elucidate potential synergistic mechanisms. The following final concentration range of FM were used: FRAP (2.50–20 µM), ORAC (0.08–0.60 µM), TEAC (0.31–2.50 µM), DPPH (1.25–10 µM), ADA (5.0–40 µM), and APA (2.50–20 µM). […]

[5] = Trolox Equivalent Antioxidant Capacity (TEAC) assay
Procedure: TEAC assay was carried out according to Bazzicalupo et al.. […] Fifty microliters of each flavanone (2.0–64 µM) or trolox as reference compound (2.50–20 µM) were added to 1 mL of the TEAC reagent and incubated at RT in the dark for 6 min. The absorbance was recorded at 734 nm. Based on the results of the preliminary antioxidant and anti-inflammatory screening (see Section 2.2), the most powerful flavanones (neohesperidin, hesperidin, neoeriocitrin, eriocitrin, and hesperetin) were selected in order to prepare a flavanones mix (FM), which was, at first instance, investigated by the same in vitro colorimetric assays (see Section 2.2) in order to evaluate its potency with respect to the single flavanones and to elucidate potential synergistic mechanisms. The following final concentration range of FM were used: FRAP (2.50–20 µM), ORAC (0.08–0.60 µM), TEAC (0.31–2.50 µM), DPPH (1.25–10 µM), ADA (5.0–40 µM), and APA (2.50–20 µM). After that, being the results of the preliminary antioxidant and anti-inflammatory screening of FM very promising, an appropriate concentration was chosen to proceed with the subsequent analyses. […]

[6] = parameters: method as in PMID 19728713; settings: as compounds of a bitter orange extract; cited from earlier work
[7] = 10 µM co-treatment with IL-1β 25 ng/mL

Compound: C[C@@H]1C[C@H]2[C@@H]3CCC4=CC(=O)C=C[C@]4(C)[C@@]3(F)[C@@H](O)C[C@]2(C)[C@@]1(O)C(=O)CO [Dex, dexamethasone]
- pro-inflammatory activity, NO release vs CTR− ([1]; 10 µM alone, without IL-1β): did not show any pro-inflammatory activity
- inhibition of NO release [1, 7]: ~16%
- pro-inflammatory activity, IL-6 release vs CTR− ([2]; 10 µM alone, without IL-1β): did not show any pro-inflammatory activity
- IL-6 release with respect to positive control (CTR+) [2, 7]: statistically significant decrease (p < 0.001)
- pro-inflammatory activity, IL-8 release vs CTR− ([3]; 10 µM alone, without IL-1β): did not show any pro-inflammatory activity
- inhibition of IL-8 release [3, 7]: ~66%

Compound: C[C@@H]1O[C@@H](OC[C@H]2O[C@@H](Oc3cc(O)c4c(c3)O[C@H](c3ccc(O)c(O)c3)CC4=O)[C@H](O)[C@@H](O)[C@@H]2O)[C@H](O)[C@H](O)[C@H]1O [Eriocitrin, eriodictyol-7-O-rutinoside]
- DFM (µM): flavanone in duodenal digested flavanones mix [4]: 8.80 ± 0.03 µM
- GFM (µM): flavanone in gastric digested flavanones mix [4]: 9.05 ± 0.12 µM

Compound: COc1ccc(C2CC(=O)c3c(O)cc(O)cc3O2)cc1O (centres unmarked) [Hesperetin, 3′,5,7-trihydroxy-4′-methoxyflavanone]
- anti-inflammatory activity less than the other tested molecules, protease inhibition (trypsin): about 4 times
- IC50 in comparison with reference standard trolox, TEAC [5]: a behavior comparable with the reference standard
- stability after simulated in vitro digestion [6]: stable after simulated in vitro digestion
- DFM (µM): flavanone in duodenal digested flavanones mix [4]: 8.76 ± 0.22 µM
- GFM (µM): flavanone in gastric digested flavanones mix [4]: 9.38 ± 0.18 µM

Compound: COc1ccc([C@@H]2CC(=O)c3c(O)cc(O[C@@H]4O[C@H](CO[C@@H]5O[C@@H](C)[C@H](O)[C@@H](O)[C@H]5O)[C@@H](O)[C@H](O)[C@H]4O)cc3O2)cc1O [Hesperidin, hesperetin-7-O-rutinoside]
- IC50 in comparison with reference standard trolox, TEAC [5]: a behavior comparable with the reference standard
- stability after simulated in vitro digestion [6]: stable after simulated in vitro digestion
- DFM (µM): flavanone in duodenal digested flavanones mix [4]: 9.86 ± 0.13 µM
- GFM (µM): flavanone in gastric digested flavanones mix [4]: 9.95 ± 0.04 µM

Compound: IL-1β: well-known pro-inflammatory agent used at 25 ng/mL to trigger inflammation (CTR+)
- increase in NO release vs CTR− ([1]; 25 ng/mL): ~ 2.5 folds
- increase in IL-6 vs CTR− ([2]; 25 ng/mL): ~ 7 folds
- increase in IL-8 vs CTR− ([3]; 25 ng/mL): ~ 27 folds
